From paper PMC11487561 (ACS Chemical Neuroscience, 2024)
pEC50: −log10 of the molar value. Read-outs that look alike come from different tables or passages of the source.

Key:
human M4 (hM4) = molecular target: T1, human M4 (hM4) (Homo sapiens, UniProt P08173); assay: Calcium mobilization assay, hM4/Gqi5-CHO cells, EC20 acetylcholine (PAM); format: cell-based; details: for Emax: read-out: hM4 %ACh Max; for fold loss in hM4 potency vs comparator: 14e vs 14g, 14c vs VU6007215; for fold decrease in hM4 activity with R1 larger than methyl: relative to the R1 = methyl analogue
T1 construct: expressed in transfected cells
T1 sequence (P08173 1-479): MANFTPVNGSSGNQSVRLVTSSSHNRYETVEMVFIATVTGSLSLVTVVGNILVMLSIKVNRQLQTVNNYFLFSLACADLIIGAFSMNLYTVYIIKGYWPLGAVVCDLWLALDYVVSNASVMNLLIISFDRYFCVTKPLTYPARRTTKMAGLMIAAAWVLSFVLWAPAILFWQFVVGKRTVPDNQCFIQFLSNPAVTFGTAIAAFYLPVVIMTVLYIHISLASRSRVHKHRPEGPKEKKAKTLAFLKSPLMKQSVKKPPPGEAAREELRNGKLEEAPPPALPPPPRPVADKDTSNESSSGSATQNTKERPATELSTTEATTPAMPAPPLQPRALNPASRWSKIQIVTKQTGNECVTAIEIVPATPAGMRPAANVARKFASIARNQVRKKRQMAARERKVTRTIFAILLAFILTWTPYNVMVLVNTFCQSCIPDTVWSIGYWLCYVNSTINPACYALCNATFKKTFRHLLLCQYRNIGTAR

[1] = Binding in brain homogenate from rat (equilibrium dialysis); format: in vitro ADME; details: rat, brain homogenate, in %; read-out: fu,brain (rat brain homogenate)
Experimental: Binding in brain homogenate from rat.
Determination of fraction unbound (f u) in brain homogenate from rat was conducted using the same methodology and procedure than described for plasma protein binding assay with the following modifications: 1) a final compound concentration of 1 μM was used, 2) naïve rat brains were homogenized in DPBS (1:3 composition of brain: DPBS, w/w) using a Mini-Bead Beater™ machine in order to obtain […]
The diluted fraction unbound (f u2) in brain was calculated as (analyte to IS MS peak area ratio from Trans-buffer side) / (analyte to IS MS peak area ratio from Cis-brain homogenate side). Undiluted fraction unbound for the brain was calculated using the following equation: […]
Mean values for each species were calculated from 3 replicates. […]

[2] = calcium mobilization, hM4/Gqi5-CHO cells, EC20 acetylcholine
[3] = calcium mobilization, hM4/Gqi5-CHO cells, EC20 acetylcholine, read-out: hM4 EC50
[4] = calcium mobilization, hM4/Gqi5-CHO cells, EC20 acetylcholine, read-out: hM4 pEC50 (converted)

SMILES	hM4 pEC50 (human M4 (hM4); [2])	Emax (human M4 (hM4); [2])	pEC50 (human M4 (hM4); [3])	further results
COc1ccc(CNc2ncnc3c2sc2nc(C)nc(C)c23)cc1F [14k]	5.94	65%	5.92	EC50 (human M4 (hM4); in μM, read-out: hM4 EC50): > 1 µM
Cc1nc(C)c2c(n1)sc1c(N3CCN(C)CC3)nccc12 [22b]	–	52%	< 5.00	–
Cc1nc(C)c2c(n1)sc1c(N3CCOCC3)ncnc12 [14b]	–	39%	5.25	EC50 (human M4 (hM4); [4]): 5.5 µM
Cc1nc(C)c2c(n1)sc1c(N3CC4(COC4)C3)ncnc12 [14c]	5.80	76%	5.80	fold loss in hM4 potency vs comparator (human M4 (hM4)): 11 fold
Cc1nc(C)c2c(n1)sc1c(NCc3ccc(C(C)(C)O)cc3)ncnc12 [14j]	5.90	70%	5.89	EC50 (human M4 (hM4); in μM, read-out: hM4 EC50): > 1 µM
Cc1nc(C)c2c(n1)sc1c(NCc3ccc(C(C)(C)O)cc3)ncc(C#N)c12 [compound 28]	–	62%	6.02	–
Cc1nc(C2CC2)nc2sc3c(NCc4ccc(C(C)(C)O)cc4)nccc3c12 [22o]	5.86	97%	5.85	fold decrease in hM4 activity with R1 larger than methyl (human M4 (hM4)): 9.3 fold
Cc1nc(C)c2c(n1)sc1c(NCc3ccc(C(C)(C)O)cc3F)nccc12 [22h]	6.08	89%	–	–
Cc1nc(C)c2c(n1)sc1c(N3CCCCC3)ncnc12 [14a]	–	–	< 4.52	EC50 (human M4 (hM4); [4]): > 31.6 µM
Cc1nc(CC(C)C)nc2sc3c(NCc4ccc(C(C)(C)O)cc4)nccc3c12 [22n]	–	66%	–	fold decrease in hM4 activity with R1 larger than methyl (human M4 (hM4)): > 66 fold
CCN(CC)c1nccc2c1sc1nc(C)nc(C)c12 [22a]	–	38%	–	–
Cc1nc(C)c2c(n1)sc1c(N3CCC3)ncnc12 [14d]	5.84	60%	5.85	–
Cc1nc(C2CC2)nc2sc3c(N4CCCC4)nccc3c12 [22q]	6.00	65%	6.00	fold decrease in hM4 activity with R1 larger than methyl (human M4 (hM4)): > 13 fold
Cc1nc(C)c2c(n1)sc1c(NCc3ccc(C(C)(C)O)cc3)ncc(Cl)c12 [26a]	5.48	92%	–	–
Cc1nc(C)c2c(n1)sc1c(NC3CCC3)nccc12 [22c]	6.52	95%	–	–
Cc1nc(C)c2c(n1)sc1c(NCc3ccc(C(C)(C)O)cc3)ncc(C3CC3)c12 [compound 27]	–	–	–	EC50 (human M4 (hM4); [4]): > 31.6 µM

The next lines start with results.

hM4 pEC50 (human M4 (hM4); [2])	Emax (human M4 (hM4); [2])	pEC50 (human M4 (hM4); [3])	SMILES	further results
–	61%	6.16	Cc1nc(C)c2c(n1)sc1c(N3CCCC3)ncc(Cl)c12 [26b]	–
–	86%	6.62	Cc1nc(C)c2c(n1)sc1c(CC(C)(C)C)nccc12 [23b]	–
6.25	56%	6.25	Cc1nc(C)c2c(n1)sc1c(NC3CCCC3)ncnc12 [14f]	–
6.54	52%	6.54	Cc1nc(C)c2c(n1)sc1c(N3CCCC3)ncnc12 [14g]	–
–	109%	6.24	Cc1nc(C)c2c(n1)sc1c(C3CC3)nccc12 [23a]	–
–	86%	6.55	Cc1nc(C)c2c(n1)sc1c(NCc3ccc(C(C)(C)O)c(F)c3)nccc12 [22i]	fraction unbound at 6 h, 1 µM [1]: < 0.01
6.87	73%	6.89	Cc1nc(C)c2c(n1)sc1c(NC3CCCC3)nccc12 [22d]	–
6.20	77%	6.19	Cc1nc(C)c2c(n1)sc1c(N3CCC(F)(F)C3)ncnc12 [14e]	fold loss in hM4 potency vs comparator (human M4 (hM4)): 2.2 fold
–	81%	6.11	CCc1nc(C)c2c(n1)sc1c(NCc3ccc(C(C)(C)O)cc3)nccc12 [22p]	fold decrease in hM4 activity with R1 larger than methyl (human M4 (hM4)): 4.0 fold
